Measured values published in patent US20260347338A1, “PYRIMIDINE/PYRIDINE DERIVATIVES OR SALTS THEREOF AND PHARMACEUTICAL COMPOSITIONS COMPRISING THE SAME” (YUHAN CORPORATION, priority 2023, published 2026).
Counter-ions that a name gives are not always drawn.

These compounds were tested against T1, human recombinant HPK1 (Homo sapiens, UniProt Q92918) (assay: Inhibitory activity against human recombinant HPK1 (TR-FRET)). Settings: ULight-p70S6K peptide, ATP at Km, room temperature, 1 hour, 0.32 to 1000 nM compound.
T1 construct: purchased BPS Bioscience
Format: biochemical
Summary of the method: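 IC50 classes A–D use 10, 50 and 100 nM cut-offs, derived from TR-FRET signal inhibition relative to DMSO controls. Human recombinant HPK1 phosphorylated ULight-p70S6K peptide at Km ATP for 1 h, room temperature, pH 7.4; test range 0.32–1000 nM final, detection with Eu-labelled antibody after EDTA quench.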

T1 sequence (Q92918 whole entry): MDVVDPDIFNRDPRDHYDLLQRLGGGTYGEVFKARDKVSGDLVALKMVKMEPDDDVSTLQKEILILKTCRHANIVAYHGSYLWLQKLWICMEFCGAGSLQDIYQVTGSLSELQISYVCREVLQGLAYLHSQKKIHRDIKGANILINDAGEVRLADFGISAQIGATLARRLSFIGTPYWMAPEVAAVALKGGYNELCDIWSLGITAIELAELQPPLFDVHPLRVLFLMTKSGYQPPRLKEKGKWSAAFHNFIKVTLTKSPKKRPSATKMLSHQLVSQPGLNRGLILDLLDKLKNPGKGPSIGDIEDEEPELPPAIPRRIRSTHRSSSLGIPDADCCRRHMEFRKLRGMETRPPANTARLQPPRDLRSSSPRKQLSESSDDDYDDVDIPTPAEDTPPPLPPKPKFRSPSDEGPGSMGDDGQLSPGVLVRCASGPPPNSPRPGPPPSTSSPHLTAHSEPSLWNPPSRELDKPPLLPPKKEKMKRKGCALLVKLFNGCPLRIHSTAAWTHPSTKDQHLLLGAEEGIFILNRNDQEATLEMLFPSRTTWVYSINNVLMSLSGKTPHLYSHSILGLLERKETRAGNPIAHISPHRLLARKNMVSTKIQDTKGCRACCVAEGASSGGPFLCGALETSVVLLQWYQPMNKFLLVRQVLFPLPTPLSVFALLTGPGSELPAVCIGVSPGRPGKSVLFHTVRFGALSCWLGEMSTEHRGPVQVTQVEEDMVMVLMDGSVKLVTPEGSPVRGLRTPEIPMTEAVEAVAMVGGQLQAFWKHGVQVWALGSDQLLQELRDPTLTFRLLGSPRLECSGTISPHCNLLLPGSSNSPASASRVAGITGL

IC50, ≤ 10 nM:
COc1cccc(F)c1-c1nccc(Nc2cc(N3CCC[C@H](O)C3)c(-c3cnn(C4CC(C)(C)OC(C)(C)C4)c3)cn2)n1 [Example 264, (S)-1-(2-((2-(2-fluoro-6-methoxyphenyl)pyrimidin-4-yl)amino)-5-(1-(2,2,6,6-tetramethyltetrahydro-2H-pyran-4-yl)-1H-pyrazol-4-yl)pyridin-4-yl)piperidin-3-ol]
COc1cccc(F)c1-c1nccc(Nc2cc(N3CCC[C@H](N)C3)c(-c3ccc(C(=O)N4CCNCC4)cc3)cn2)n1 [Example 265, (S)-(4-(4-(3-aminopiperidin-1-yl)-6-((2-(2-fluoro-6-methoxyphenyl)pyrimidin-4-yl)amino)pyridin-3-yl)phenyl)(piperazin-1-yl)methanone hydrochloride]
CNC[C@@H]1CCCN(c2cc(Nc3ccnc(-c4c(F)cccc4OC)n3)ncc2-c2cnn(C(F)F)c2)C1 [Example 266, (S)-N-(5-(1-(difluoromethyl)-1H-pyrazol-4-yl)-4-(3-((methylamino)methyl)piperidin-1-yl)pyridin-2-yl)-2-(2-fluoro-6-methoxyphenyl)pyrimidin-4-amine hydrochloride]
CNC[C@H]1CCCN(c2cc(Nc3ccnc(-c4c(F)cccc4OC)n3)ncc2-c2cnn(C(F)F)c2)C1 [Example 267, (R)-N-(5-(1-(difluoromethyl)-1H-pyrazol-4-yl)-4-(3-((methylamino)methyl)piperidin-1-yl)pyridin-2-yl)-2-(2-fluoro-6-methoxyphenyl)pyrimidin-4-amine hydrochloride]
COc1cccc(F)c1-c1nccc(Nc2cc(N3CC[C@@H](N)[C@H](C)C3)c(-c3cnn(C(F)F)c3)cn2)n1 [Example 268, N-(4-((3R,4R)-4-amino-3-methylpiperidin-1-yl)-5-(1-(difluoromethyl)-1H-pyrazol-4-yl)pyridin-2-yl)-2-(2-fluoro-6-methoxyphenyl)pyrimidin-4-amine hydrochloride]
COc1cccc(F)c1-c1nccc(Nc2cc(N3CCC[C@H](N)C3)c(-c3cnn(C4CC(C)(C)OC(C)(C)C4)c3)cn2)n1 [Example 269, (S)-N-(4-(3-aminopiperidin-1-yl)-5-(1-(2,2,6,6-tetramethyltetrahydro-2H-pyran-4-yl)-1H-pyrazol-4-yl)pyridin-2-yl)-2-(2-fluoro-6-methoxyphenyl)pyrimidin-4-amine hydrochloride]
COc1cccc(F)c1-c1nccc(Nc2cc(N3CCC[C@H](N)C3)c(-c3ccc4c(c3)NC(=O)C(C)O4)cn2)n1 (stereo partly drawn) [Example 270, 6-(4-((S)-3-aminopiperidin-1-yl)-6-((2-(2-fluoro-6-methoxyphenyl)pyrimidin-4-yl)amino)pyridin-3-yl)-2-methyl-2H-benzo[b][1,4]oxazin-3(4H)-one hydrochloride]
COc1cccc(F)c1-c1nccc(Nc2cc(N3CCC[C@H](C)C3)c(-c3cnn(C(F)F)c3)cn2)n1 [Example 271, (S)-N-(5-(1-(difluoromethyl)-1H-pyrazol-4-yl)-4-(3-methylpiperidin-1-yl)pyridin-2-yl)-2-(2-fluoro-6-methoxyphenyl)pyrimidin-4-amine]
COc1cccc(F)c1-c1nccc(Nc2cc(N3CCC[C@H](CF)C3)c(-c3cnn(C(F)F)c3)cn2)n1 [Example 272, (S)-N-(5-(1-(difluoromethyl)-1H-pyrazol-4-yl)-4-(3-(fluoromethyl)piperidin-1-yl)pyridin-2-yl)-2-(2-fluoro-6-methoxyphenyl)pyrimidin-4-amine]
COc1cccc(F)c1-c1nccc(Nc2cc(N3CCC[C@@H](C(F)F)C3)c(-c3cnn(C(F)F)c3)cn2)n1 [Example 273, (R)-N-(5-(1-(difluoromethyl)-1H-pyrazol-4-yl)-4-(3-(difluoromethyl)piperidin-1-yl)pyridin-2-yl)-2-(2-fluoro-6-methoxyphenyl)pyrimidin-4-amine]
COc1cccc(F)c1-c1nccc(Nc2cc(N3CCC[C@H](N)C3)c(-c3cnc4c(c3)OCC(=O)N4C)cn2)n1 [Example 274, (S)-7-(4-(3-aminopiperidin-1-yl)-6-((2-(2-fluoro-6-methoxyphenyl)pyrimidin-4-yl)amino)pyridin-3-yl)-4-methyl-2H-pyrido[3,2-b][1,4]oxazin-3(4H)-one hydrochloride]
COc1cccc(F)c1-c1nccc(Nc2cc(N3CCC[C@H](N)C3)c(-c3cnc4c(c3)OCC(=O)N4)cn2)n1 [Example 275, (S)-7-(4-(3-aminopiperidin-1-yl)-6-((2-(2-fluoro-6-methoxyphenyl)pyrimidin-4-yl)amino)pyridin-3-yl)-2H-pyrido[3,2-b][1,4]oxazin-3(4H)-one hydrochloride]
COc1cccc(F)c1-c1nccc(Nc2cc(N3CCC[C@H](N)C3)c(-c3cnc4c(c3)CCC(=O)N4)cn2)n1 [Example 276, (S)-6-(4-(3-aminopiperidin-1-yl)-6-((2-(2-fluoro-6-methoxyphenyl)pyrimidin-4-yl)amino)pyridin-3-yl)-3,4-dihydro-1,8-naphthyridin-2(1H)-one hydrochloride]
COc1cccc(F)c1-c1nccc(Nc2cc(N3CCC[C@H](N)C3)c(-c3cnn(C4COC4)c3)cn2)n1 [Example 277, (S)-N-(4-(3-aminopiperidin-1-yl)-5-(1-(oxetan-3-yl)-1H-pyrazol-4-yl)pyridin-2-yl)-2-(2-fluoro-6-methoxyphenyl)pyrimidin-4-amine hydrochloride]
COC(=O)C(C)(C)n1cc(-c2cnc(Nc3ccnc(-c4c(F)cccc4OC)n3)cc2N2CCC[C@H](N)C2)cn1 [Example 278, methyl (S)-2-(4-(4-(3-aminopiperidin-1-yl)-6-((2-(2-fluoro-6-methoxyphenyl)pyrimidin-4-yl)amino)pyridin-3-yl)-1H-pyrazol-1-yl)-2-methylpropanoate hydrochloride]
COc1cccc(F)c1-c1nccc(Nc2cc(N3CCC[C@H](N)C3)c(-c3ccc(NC(C)=O)cc3)cn2)n1 [Example 279, (S)-N-(4-(4-(3-aminopiperidin-1-yl)-6-((2-(2-fluoro-6-methoxyphenyl)pyrimidin-4-yl)amino)pyridin-3-yl)phenyl)acetamide hydrochloride]
COc1cccc(F)c1-c1nccc(Nc2cc(N3CCC[C@H](N)C3)c(-c3cccc(C(=O)N(C)C)c3)cn2)n1 [Example 280, (S)-3-(4-(3-aminopiperidin-1-yl)-6-((2-(2-fluoro-6-methoxyphenyl)pyrimidin-4-yl)amino)pyridin-3-yl)-N,N-dimethylbenzamide hydrochloride]
COc1cccc(F)c1-c1nccc(Nc2cc(N3CCC[C@H](N)C3)c(-c3ccc(OC(F)(F)F)c(C)c3)cn2)n1 [Example 281, (S)-N-(4-(3-aminopiperidin-1-yl)-5-(3-methyl-4-(trifluoromethoxy)phenyl)pyridin-2-yl)-2-(2-fluoro-6-methoxyphenyl)pyrimidin-4-amine hydrochloride]
